This is an account of results in PMC11494501, “AlphaFold Ensemble Competition Screens Enable Peptide Binder Design with Single-Residue Sensitivity” (ACS Chemical Biology, 2024).

Residues, ends and D or L forms follow the SMILES beside them. *: point of attachment. FITC = O=C1OC2(c3ccc(O)cc3Oc3cc(O)ccc32)c2ccc(NC(=S)*)cc21; βAla = NCCC(=O)O

For the first assay, the target named is T1, Ub (Homo sapiens, UniProt P0CG48).
Assay: not given
The following applies: read-out: dissociation constant of Ub:UIM-1 complex; cited from earlier work. From the text: We selected the UIM-1 sequence as an experimental model system because it is well characterized, having both the reported dissociation constant and NMR structure (pdb: 1q0w, Figure 1a,c). […] The UIM-1 sequence binds to Ub primarily through a series of hydrophobic contacts around the characteristic “AxxxS” UIM pattern of alanine and serine residues spaced four positions apart. Further, polar and salt bridge contacts may also stabilize the complex. […] The peptide concentration was mainta ...
With “UIM-1: first UIM of the Vps27 protein; literature Kd from a slightly longer variant of the peptide”, the Kd is 277 µM.

Another assay addresses T1, Ub. Briefly: Fluorescence polarization (FP) titration of labelled peptide against Ub. The following applies: 1c (C-terminal Lys side-chain label) relative to 1a (N-terminal label), from FP Kd. Background: In fluorescence polarisation assays a small probe gives low polarisation when free and higher when bound to something large.
In the case of `CC[C@H](C)[C@H](NC(=O)[C@H](C)NC(=O)[C@H](CCCCN)NC(=O)[C@H](CCCNC(=N)N)NC(=O)[C@@H](NC(=O)[C@H](CC(C)C)NC(=O)[C@H](CCC(=O)O)NC(=O)[C@H](CCC(=O)O)NC(=O)[C@H](CCC(=O)O)NC(=O)[C@H](CC(=O)O)NC(=O)[C@H](CCC(=O)O)NC(=O)CNC(C)=O)[C@@H](C)CC)C(=O)N[C@@H](CCC(=O)O)C(=O)N[C@@H](CC(C)C)C(=O)N[C@@H](CO)C(=O)N[C@@H](CC(C)C)C(=O)N[C@@H](CCCCN)C(=O)N[C@@H](CCC(=O)O)C(=O)N[C@@H](CO)C(=O)NCC(=O)N[C@@H](CCCCNC(=S)Nc1ccc2c(c1)C(=O)OC21c2ccc(O)cc2Oc2cc(O)ccc21)C(N)=O` [1c] (Ac-GEDEEELIRKAIELSLKESGK(FITC)-NH2), the “reduction in binding energy” value came to 6.5 kJ mol^–1.

Still in this assay, the particulars now being: relative to 1a (UIM-1), from FP Kd; positive = weaker binding.
Regarding `CC[C@H](C)[C@H](NC(=O)[C@H](CC(C)C)NC(=O)[C@H](CCC(=O)O)NC(=O)[C@H](CCC(=O)O)NC(=O)[C@H](CCC(=O)O)NC(=O)[C@H](CC(=O)O)NC(=O)[C@H](CCC(=O)O)NC(=O)CNC(=O)CCNC(=S)Nc1ccc2c(c1)C(=O)OC21c2ccc(O)cc2Oc2cc(O)ccc21)C(=O)N[C@@H](CCCNC(=N)N)C(=O)N[C@@H](CCCCN)C(=O)N[C@@H](C)C(=O)N[C@@H](CC(C)C)C(=O)N[C@@H](CCC(=O)O)C(=O)N[C@@H](CC(C)C)C(=O)N[C@@H](CO)C(=O)N[C@@H](CC(C)C)C(=O)N[C@@H](CCCCN)C(=O)N[C@@H](CCC(=O)O)C(=O)N[C@@H](CO)C(=O)NCC(N)=O` [9a] ({FITC-βAla}-GEDEEELIRKALELSLKESG-NH2), the “ΔΔG for binding Ub” value was 0.693 kcal/mol.

As to `CC[C@H](C)[C@H](NC(=O)[C@H](C)NC(=O)[C@H](CCCCN)NC(=O)[C@H](CCCNC(=N)N)NC(=O)[C@@H](NC(=O)[C@H](CC(C)C)NC(=O)[C@H](CCC(=O)O)NC(=O)[C@H](CCC(=O)O)NC(=O)[C@H](CCC(=O)O)NC(=O)[C@H](CC(=O)O)NC(=O)[C@H](CCC(=O)O)NC(=O)CNC(=O)CCNC(=S)Nc1ccc2c(c1)C(=O)OC21c2ccc(O)cc2Oc2cc(O)ccc21)[C@@H](C)CC)C(=O)N[C@@H](CCC(=O)O)C(=O)N[C@@H](CC(C)C)C(=O)N[C@@H](CO)C(=O)N[C@@H](CCC(=O)O)C(=O)N[C@@H](CCCCN)C(=O)N[C@@H](CCC(=O)O)C(=O)N[C@@H](CO)C(=O)NCC(N)=O` [11a] ({FITC-βAla}-GEDEEELIRKAIELSEKESG-NH2), the “ΔΔG for binding Ub” value worked out at 1.08 kcal/mol.

For the compound `CC[C@H](C)[C@H](NC(=O)[C@H](C)NC(=O)[C@H](CCCCN)NC(=O)[C@H](CCCNC(=N)N)NC(=O)[C@@H](NC(=O)[C@H](CC(C)C)NC(=O)[C@H](CCC(=O)O)NC(=O)[C@H](CCC(=O)O)NC(=O)[C@H](CCC(=O)O)NC(=O)[C@H](CC(=O)O)NC(=O)[C@H](CCC(=O)O)NC(=O)CNC(=O)CCNC(=S)Nc1ccc2c(c1)C(=O)OC21c2ccc(O)cc2Oc2cc(O)ccc21)[C@@H](C)CC)C(=O)N[C@@H](CCC(=O)O)C(=O)N[C@@H](CC(C)C)C(=O)N[C@@H](CO)C(=O)N[C@@H](C)C(=O)N[C@@H](CCCCN)C(=O)N[C@@H](CCC(=O)O)C(=O)N[C@@H](CO)C(=O)NCC(N)=O` [6a] ({FITC-βAla}-GEDEEELIRKAIELSAKESG-NH2), the “ΔΔG for binding Ub” value stood at 1.12 kcal/mol.

Take `CC[C@H](C)[C@H](NC(=O)[C@H](C)NC(=O)[C@H](CCCCN)NC(=O)[C@H](CCCNC(=N)N)NC(=O)[C@@H](NC(=O)[C@H](CCC(=O)O)NC(=O)[C@H](CCC(=O)O)NC(=O)[C@H](CCC(=O)O)NC(=O)[C@H](CCC(=O)O)NC(=O)[C@H](CC(=O)O)NC(=O)[C@H](CCC(=O)O)NC(=O)CNC(=O)CCNC(=S)Nc1ccc2c(c1)C(=O)OC21c2ccc(O)cc2Oc2cc(O)ccc21)[C@@H](C)CC)C(=O)N[C@@H](CCC(=O)O)C(=O)N[C@@H](CC(C)C)C(=O)N[C@@H](CO)C(=O)N[C@@H](CC(C)C)C(=O)N[C@@H](CCCCN)C(=O)N[C@@H](CCC(=O)O)C(=O)N[C@@H](CO)C(=O)NCC(N)=O` [7a] ({FITC-βAla}-GEDEEEEIRKAIELSLKESG-NH2): the “ΔΔG for binding Ub” value was 0.669 kcal/mol. Same read-out and setting: to `CC[C@H](C)[C@H](NC(=O)[C@H](C)NC(=O)[C@H](CCCCN)NC(=O)[C@H](CCCNC(=N)N)NC(=O)[C@H](Cc1ccccc1)NC(=O)[C@H](CC(C)C)NC(=O)[C@H](CCC(=O)O)NC(=O)[C@H](CCC(=O)O)NC(=O)[C@H](CCC(=O)O)NC(=O)[C@H](CC(=O)O)NC(=O)[C@H](CCC(=O)O)NC(=O)CNC(=O)CCNC(=S)Nc1ccc2c(c1)C(=O)OC21c2ccc(O)cc2Oc2cc(O)ccc21)C(=O)N[C@@H](CCC(=O)O)C(=O)N[C@@H](CC(C)C)C(=O)N[C@@H](CO)C(=O)N[C@@H](CC(C)C)C(=O)N[C@@H](CCCCN)C(=O)N[C@@H](CCC(=O)O)C(=O)N[C@@H](CO)C(=O)NCC(N)=O` [8a] ({FITC-βAla}-GEDEEELFRKAIELSLKESG-NH2) belongs 0.502 kcal/mol. Take `CC[C@H](C)[C@H](NC(=O)[C@H](CC(C)C)NC(=O)[C@H](CCC(=O)O)NC(=O)[C@H](CCC(=O)O)NC(=O)[C@H](CCC(=O)O)NC(=O)[C@H](CC(=O)O)NC(=O)[C@H](CCC(=O)O)NC(=O)CNC(=O)CCNC(=S)Nc1ccc2c(c1)C(=O)OC21c2ccc(O)cc2Oc2cc(O)ccc21)C(=O)N[C@@H](CCCNC(=N)N)C(=O)N[C@@H](CCCCN)C(=O)N[C@@H](C)C(=O)N[C@@H](C)C(=O)N[C@@H](CCC(=O)O)C(=O)N[C@@H](CC(C)C)C(=O)N[C@@H](CO)C(=O)N[C@@H](CC(C)C)C(=O)N[C@@H](CCCCN)C(=O)N[C@@H](CCC(=O)O)C(=O)N[C@@H](CO)C(=O)NCC(N)=O` [4a] ({FITC-βAla}-GEDEEELIRKAAELSLKESG-NH2): the “ΔΔG for binding Ub” value is 1.67 kcal/mol. Take `CC[C@H](C)[C@H](NC(=O)[C@H](C)NC(=O)[C@H](CCCCN)NC(=O)[C@H](CCCNC(=N)N)NC(=O)[C@H](C)NC(=O)[C@H](CC(C)C)NC(=O)[C@H](CCC(=O)O)NC(=O)[C@H](CCC(=O)O)NC(=O)[C@H](CCC(=O)O)NC(=O)[C@H](CC(=O)O)NC(=O)[C@H](CCC(=O)O)NC(=O)CNC(=O)CCNC(=S)Nc1ccc2c(c1)C(=O)OC21c2ccc(O)cc2Oc2cc(O)ccc21)C(=O)N[C@@H](CCC(=O)O)C(=O)N[C@@H](CC(C)C)C(=O)N[C@@H](CO)C(=O)N[C@@H](CC(C)C)C(=O)N[C@@H](CCCCN)C(=O)N[C@@H](CCC(=O)O)C(=O)N[C@@H](CO)C(=O)NCC(N)=O` [3a] ({FITC-βAla}-GEDEEELARKAIELSLKESG-NH2): the “ΔΔG for binding Ub” value amounted to 1.89 kcal/mol. Same read-out and setting: under `CC[C@H](C)[C@H](NC(=O)[C@H](C)NC(=O)[C@H](CCCCN)NC(=O)[C@H](CCCNC(=N)N)NC(=O)[C@@H](NC(=O)[C@H](CC(C)C)NC(=O)[C@H](CCC(=O)O)NC(=O)[C@H](CCC(=O)O)NC(=O)[C@H](CCC(=O)O)NC(=O)[C@H](CC(=O)O)NC(=O)[C@H](CCC(=O)O)NC(=O)CNC(=O)CCNC(=S)Nc1ccc2c(c1)C(=O)OC21c2ccc(O)cc2Oc2cc(O)ccc21)[C@@H](C)CC)C(=O)N[C@@H](CCC(=O)O)C(=O)N[C@@H](CCC(=O)O)C(=O)N[C@@H](CO)C(=O)N[C@@H](CC(C)C)C(=O)N[C@@H](CCCCN)C(=O)N[C@@H](CCC(=O)O)C(=O)N[C@@H](CO)C(=O)NCC(N)=O` [10a] ({FITC-βAla}-GEDEEELIRKAIEESLKESG-NH2) stands -0.072 kcal/mol. Same read-out and setting: to `CC[C@H](C)[C@H](NC(=O)[C@H](C)NC(=O)[C@H](CCCCN)NC(=O)[C@H](CCCNC(=N)N)NC(=O)[C@@H](NC(=O)[C@H](CC(C)C)NC(=O)[C@H](CCC(=O)O)NC(=O)[C@H](CCC(=O)O)NC(=O)[C@H](CCC(=O)O)NC(=O)[C@H](CC(=O)O)NC(=O)[C@H](CCC(=O)O)NC(=O)CNC(=O)CCNC(=S)Nc1ccc2c(c1)C(=O)OC21c2ccc(O)cc2Oc2cc(O)ccc21)[C@@H](C)CC)C(=O)N[C@@H](CCC(=O)O)C(=O)N[C@@H](C)C(=O)N[C@@H](CO)C(=O)N[C@@H](CC(C)C)C(=O)N[C@@H](CCCCN)C(=O)N[C@@H](CCC(=O)O)C(=O)N[C@@H](CO)C(=O)NCC(N)=O` [5a] ({FITC-βAla}-GEDEEELIRKAIEASLKESG-NH2) belongs 0.239 kcal/mol.

The assay is the same for the next values; noted with them: relative to 1a, from FP Kd.
The compound `CC[C@H](C)[C@H](NC(=O)[C@H](C)NC(=O)[C@H](CCCCN)NC(=O)[C@H](CCCNC(=N)N)NC(=O)[C@@H](NC(=O)[C@H](CC(C)C)NC(=O)[C@H](CCC(=O)O)NC(=O)[C@H](CCC(=O)O)NC(=O)[C@H](CCC(=O)O)NC(=O)[C@H](CC(=O)O)NC(=O)[C@H](CCC(=O)O)NC(=O)CNC(=O)CCNC(=S)Nc1ccc2c(c1)C(=O)OC21c2ccc(O)cc2Oc2cc(O)ccc21)[C@@H](C)CC)C(=O)N[C@@H](CCC(=O)O)C(=O)N[C@@H](CCC(=O)O)C(=O)N[C@@H](CO)C(=O)N[C@@H](CC(C)C)C(=O)N[C@@H](CCCCN)C(=O)N[C@@H](CCC(=O)O)C(=O)N[C@@H](CO)C(=O)NCC(N)=O` [10a] ({FITC-βAla}-GEDEEELIRKAIEESLKESG-NH2) showed an additional binding energy of 0.3 kJ mol^–1.
